Data taken from ChEMBL document CHEMBL4049443, “Discovery of 2-[[2-Ethyl-6-[4-[2-(3-hydroxyazetidin-1-yl)-2-oxoethyl]piperazin-1-yl]-8-methylimidazo[1,2-a]pyridin-3-yl]methylamino]-4-(4-fluorophenyl)thiazole-5-carbonitrile (GLPG1690), a First-in-Class Autotaxin Inhibitor Undergoing Clinical Evaluation for the Treatment of Idiopathic Pulmonary …” (J Med Chem, 2017).

Key:
[1] = Oral bioavailability in mouse at 5 mg/kg; format: ADME, organism-based; settings: in vivo
[2] = Plasma clearance in rat at 1 mg/kg, iv; format: ADME, organism-based
Cytochrome P450 3A4 = Cytochrome P450 3A4 (Homo sapiens, UniProt P08684); experiment: Time-dependent inhibition of human liver microsomes CYP3A4; format: ADME
Sequence of Cytochrome P450 3A4 (P08684 whole entry): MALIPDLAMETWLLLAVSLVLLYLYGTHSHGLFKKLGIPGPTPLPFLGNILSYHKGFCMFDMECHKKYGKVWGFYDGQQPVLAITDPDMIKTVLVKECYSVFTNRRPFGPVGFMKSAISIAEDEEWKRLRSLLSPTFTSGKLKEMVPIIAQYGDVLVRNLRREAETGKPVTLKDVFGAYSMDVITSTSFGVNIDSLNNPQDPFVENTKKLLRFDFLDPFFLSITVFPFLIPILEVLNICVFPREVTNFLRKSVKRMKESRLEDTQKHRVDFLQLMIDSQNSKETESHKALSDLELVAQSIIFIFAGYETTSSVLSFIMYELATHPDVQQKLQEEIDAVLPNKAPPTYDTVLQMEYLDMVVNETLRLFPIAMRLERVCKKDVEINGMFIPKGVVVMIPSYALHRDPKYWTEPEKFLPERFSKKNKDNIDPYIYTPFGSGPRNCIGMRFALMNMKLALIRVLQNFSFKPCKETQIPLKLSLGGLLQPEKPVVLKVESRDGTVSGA

[3] = Plasma clearance in mouse at 1 mg/kg, iv; format: ADME, organism-based
[4] = Oral bioavailability in rat at 5 mg/kg; format: ADME, organism-based; settings: in vivo
Autotaxin [5] = target: Autotaxin (Rattus norvegicus, UniProt Q64610); experiment: Inhibition of ATX in rat plasma assessed as reduction in LPA 18:2 production after 2 hrs by LC-MS/MS analysis
[6] = target: Voltage-gated inwardly rectifying potassium channel KCNH2 (Homo sapiens, UniProt Q12809); experiment: Inhibition of human ERG by automated patch clamp assay
Sequence of Voltage-gated inwardly rectifying potassium channel KCNH2 (Q12809 whole entry): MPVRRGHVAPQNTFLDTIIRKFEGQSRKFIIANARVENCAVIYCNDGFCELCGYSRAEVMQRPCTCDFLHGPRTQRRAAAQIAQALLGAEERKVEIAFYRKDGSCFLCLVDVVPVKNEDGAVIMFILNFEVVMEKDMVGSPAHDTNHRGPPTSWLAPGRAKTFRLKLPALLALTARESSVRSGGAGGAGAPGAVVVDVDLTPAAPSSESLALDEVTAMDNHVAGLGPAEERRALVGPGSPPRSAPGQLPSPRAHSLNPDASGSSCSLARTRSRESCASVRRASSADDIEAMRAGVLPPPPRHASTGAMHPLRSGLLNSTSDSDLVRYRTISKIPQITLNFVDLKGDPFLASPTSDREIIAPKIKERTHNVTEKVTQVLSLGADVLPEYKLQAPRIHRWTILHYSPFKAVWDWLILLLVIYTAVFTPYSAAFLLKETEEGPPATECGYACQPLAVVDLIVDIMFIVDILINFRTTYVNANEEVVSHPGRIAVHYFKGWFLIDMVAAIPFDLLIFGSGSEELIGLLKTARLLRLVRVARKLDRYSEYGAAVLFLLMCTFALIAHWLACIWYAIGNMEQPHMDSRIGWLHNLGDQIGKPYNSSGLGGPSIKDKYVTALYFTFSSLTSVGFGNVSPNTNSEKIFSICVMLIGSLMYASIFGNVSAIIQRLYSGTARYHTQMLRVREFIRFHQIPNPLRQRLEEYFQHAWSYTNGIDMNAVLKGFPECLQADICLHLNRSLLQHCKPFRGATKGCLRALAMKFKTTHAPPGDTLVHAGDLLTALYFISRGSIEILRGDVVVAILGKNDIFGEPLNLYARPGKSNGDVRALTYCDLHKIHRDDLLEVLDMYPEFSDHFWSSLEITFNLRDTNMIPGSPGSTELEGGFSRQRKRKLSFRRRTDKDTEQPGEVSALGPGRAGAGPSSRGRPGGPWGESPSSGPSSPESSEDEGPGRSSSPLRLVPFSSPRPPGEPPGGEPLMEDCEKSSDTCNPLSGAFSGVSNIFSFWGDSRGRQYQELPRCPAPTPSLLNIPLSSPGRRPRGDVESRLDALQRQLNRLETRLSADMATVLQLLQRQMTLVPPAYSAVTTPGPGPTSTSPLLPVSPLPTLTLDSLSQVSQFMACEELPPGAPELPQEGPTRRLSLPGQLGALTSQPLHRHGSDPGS

Autotaxin [7] = target: Autotaxin (Homo sapiens, UniProt Q13822); experiment: Inhibition of human ATX using LPC (16:0) as substrate after 30 mins by horseradish peroxidase/choline oxidase coupled enzyme based spectrophotometric analysis

SMILES	bioavailability [1] [%]	clearance [2] [mL/min/kg]	TDI (Cytochrome P450 3A4)	clearance [3] [mL/min/kg]	bioavailability [4] [%]	IC50 (Autotaxin [5]) [nM]	IC50 [6] [nM]	IC50 (Autotaxin [7]) [nM]
CCc1nc2ccc(C3CCN(CC(=O)N4CC(O)C4)CC3)cn2c1N(C)c1nc(-c2ccc(F)cc2)c(C#N)s1	12	51.7	Active	20	15	22	2900	27
CCc1nc2ccc(N3CCN(CC(=O)N4CC(O)C4)CC3)cn2c1N(C)c1nc(-c2ccc(F)cc2)c(C#N)s1			Active				> 11000	26
